Data as given in the Kinase Knowledgebase extract (Sharma et al. 2016).

Columns and labels:
EGFR (human) [1] = molecular target: EGFR (human) (UniProt P00533); conditions: a431
EGFR (human) [2] = molecular target: EGFR (human) (UniProt P00533)

Sequence of EGFR (human) (P00533 whole entry, looked up): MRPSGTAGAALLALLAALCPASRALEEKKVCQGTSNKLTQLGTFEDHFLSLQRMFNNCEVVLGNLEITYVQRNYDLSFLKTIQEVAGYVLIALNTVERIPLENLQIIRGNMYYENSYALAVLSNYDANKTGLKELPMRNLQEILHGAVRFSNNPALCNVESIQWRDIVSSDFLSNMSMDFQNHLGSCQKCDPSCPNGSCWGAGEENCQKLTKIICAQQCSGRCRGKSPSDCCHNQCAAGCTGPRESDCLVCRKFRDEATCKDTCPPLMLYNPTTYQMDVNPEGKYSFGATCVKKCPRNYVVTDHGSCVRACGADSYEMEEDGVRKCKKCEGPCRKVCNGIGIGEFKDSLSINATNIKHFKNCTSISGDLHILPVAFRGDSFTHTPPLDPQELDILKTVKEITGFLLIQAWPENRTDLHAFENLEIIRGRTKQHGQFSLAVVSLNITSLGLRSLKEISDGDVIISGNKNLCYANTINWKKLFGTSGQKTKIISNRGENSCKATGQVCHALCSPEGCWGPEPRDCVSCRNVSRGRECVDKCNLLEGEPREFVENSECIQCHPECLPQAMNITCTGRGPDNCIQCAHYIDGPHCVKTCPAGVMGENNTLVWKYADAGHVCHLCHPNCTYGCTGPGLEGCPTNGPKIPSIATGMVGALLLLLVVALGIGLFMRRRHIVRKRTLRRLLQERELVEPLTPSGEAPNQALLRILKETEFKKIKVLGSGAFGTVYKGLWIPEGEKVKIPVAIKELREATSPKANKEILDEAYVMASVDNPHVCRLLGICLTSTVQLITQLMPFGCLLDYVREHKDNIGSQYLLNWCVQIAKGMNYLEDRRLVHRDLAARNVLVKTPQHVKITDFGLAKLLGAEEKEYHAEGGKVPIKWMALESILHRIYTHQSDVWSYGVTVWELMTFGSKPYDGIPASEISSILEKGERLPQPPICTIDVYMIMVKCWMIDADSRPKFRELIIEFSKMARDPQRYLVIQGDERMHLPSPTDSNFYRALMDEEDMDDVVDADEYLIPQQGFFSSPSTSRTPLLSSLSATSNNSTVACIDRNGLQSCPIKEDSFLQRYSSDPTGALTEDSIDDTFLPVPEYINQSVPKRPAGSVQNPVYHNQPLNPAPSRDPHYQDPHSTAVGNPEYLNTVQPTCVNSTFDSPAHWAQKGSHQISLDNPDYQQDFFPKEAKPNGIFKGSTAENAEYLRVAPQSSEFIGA

Row | IC50 (EGFR (human) [1]) | IC50 (EGFR (human) [2]) | SMILES
1 | 615 nM | 38 nM | CS(=O)(=O)CCOCC(O)Cn1ccc(-c2ccc3ncnc(Nc4ccc(OCc5cccc(F)c5)c(Cl)c4)c3c2)c1 (centres undefined)
2 | 1030 nM | 6 nM | CCN(CC)CCn1ccc(-c2ccc3ncnc(Nc4ccc5c(cnn5Cc5cccc(F)c5)c4)c3c2)c1
3 | 562 nM | 79 nM | Fc1cccc(COc2ccc(Nc3ncnc4ccc(-c5ccn(C[C@H]6COCCN6)c5)cc34)cc2Cl)c1
4 | 657 nM | 27 nM | Fc1cccc(COc2ccc(Nc3ncnc4ccc(-c5ccn(CCN6CCCCCC6)c5)cc34)cc2Cl)c1
5 | 2870 nM | 6 nM | O=S1(=O)CCC(O)(CNCc2cc(-c3ccc4ncnc(Nc5ccc6c(cnn6Cc6cccc(F)c6)c5)c4c3)c[nH]2)CC1
6 | 570 nM | 13 nM | CS(=O)(=O)CCNCc1ccc(-c2ccc3ncnc(Nc4ccc(OCc5ccccn5)c(Cl)c4)c3c2)[nH]1
7 | 1040 nM | 55 nM | Fc1cccc(COc2ccc(Nc3ncnc4ccc(-n5cc(CNCCN6CCCC6)c(C(F)(F)F)c5)cc34)cc2Cl)c1
8 | 240 nM | 8 nM | Fc1cccc(COc2ccc(Nc3ncnc4ccc(-c5cc(CNCCN6CCOCC6)c[nH]5)cc34)cc2Cl)c1
9 | 360 nM | 3 nM | Fc1cccc(COc2ccc(Nc3ncnc4ccc(-n5cccc5)cc34)cc2Cl)c1
10 | 1420 nM | 492 nM | O=S1(=O)CCC(NCCn2ccc(-c3ccc4ncnc(Nc5ccc(OCc6cccc(F)c6)c(Cl)c5)c4c3)c2)CC1
11 | 770 nM | 22 nM | O=C(Cn1ccc(-c2ccc3ncnc(Nc4ccc(OCc5cccc(F)c5)c(Cl)c4)c3c2)c1)N1CCOCC1
12 | 874 nM | 166 nM | Fc1cccc(COc2ccc(Nc3ncnc4ccc(-c5ccn(CCc6ccncc6)c5)cc34)cc2Cl)c1
13 | 30 nM | 7 nM | O=S1(=O)CCC(O)(CNCc2ccn(-c3ccc4ncnc(Nc5ccc(OCc6cccc(F)c6)c(Cl)c5)c4c3)c2)CC1
14 | 10 nM | 6 nM | Clc1cc(Nc2ncnc3ccc(-n4cccc4)cc23)ccc1OCc1ccccn1
15 | 1370 nM | 39 nM | Fc1cccc(COc2ccc(Nc3ncnc4ccc(-c5ccn(CCCN6CCOCC6)c5)cc34)cc2Cl)c1
16 | 749 nM | 19 nM | O[C@H](CN1CCOCC1)Cn1ccc(-c2ccc3ncnc(Nc4ccc5c(cnn5Cc5cccc(F)c5)c4)c3c2)c1
17 | 570 nM | 5 nM | O=C1OCCc2cn(-c3ccc4ncnc(Nc5ccc(OCc6cccc(F)c6)c(Cl)c5)c4c3)cc21
